# Measured values as given in patent EP4806912A1, “DUAL AGONIST COMPOUND” (Chengdu Aoda Biotechnology Co., Ltd, priority 2023, dated 2025).
# How the values were obtained:
# [1] = molecular target: T1, GLP-1R (Homo sapiens, UniProt P43220); experiment: GLP-1 activity test (cAMP, chemiluminescence, CHO-K1 cell line stably expressing GLP-1R); type: cell-based; settings: relative luminescence units, read-out: GLP-1 activity [EC50(pmol)]
# T1 construct: expressed in transfected cells; host or cells: CHO-K1
# T1 sequence (P43220 24-463, species assumed): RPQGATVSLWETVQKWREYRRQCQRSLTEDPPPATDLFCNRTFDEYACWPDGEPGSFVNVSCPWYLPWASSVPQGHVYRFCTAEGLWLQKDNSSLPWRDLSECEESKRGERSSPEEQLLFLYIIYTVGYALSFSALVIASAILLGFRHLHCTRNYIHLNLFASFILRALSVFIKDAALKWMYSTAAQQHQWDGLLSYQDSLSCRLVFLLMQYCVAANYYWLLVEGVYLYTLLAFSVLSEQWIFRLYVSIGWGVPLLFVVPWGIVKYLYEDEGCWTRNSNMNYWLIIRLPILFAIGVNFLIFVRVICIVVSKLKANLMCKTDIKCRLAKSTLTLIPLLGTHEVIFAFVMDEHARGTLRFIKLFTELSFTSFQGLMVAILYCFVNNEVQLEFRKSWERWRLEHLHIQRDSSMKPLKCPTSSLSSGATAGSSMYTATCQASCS
# Method: (§1) Upon stimulation by a specific agonist, GLP-1R activates the intracellular adenylate cyclase signaling pathway, resulting in an increase in cAMP levels and ultimately leading to insulin production and secretion. A cell line stably transfected with GLP-1R was stimulated with test compounds, thereby rapidly increasing intracellular cAMP levels. The relative luminescence units (RLU) of cells stimulated at various concentrations were measured by a chemiluminescence method, and the EC50 value of the agonist was calculated accordingly. This activity test method is currently a commonly used method for evaluating GLP-1 receptor agonist activity both domestically and internationally.
# A CHO-K1 cell line stably expressing GLP-1R was used. The stable cells were stimulated with agonists at different concentrations, and the relative luminescence units after stimulation at each concentration were measured to calculate the EC50 value of the agonist.
# [2] = molecular target: T2, GCG-R (Homo sapiens, UniProt P47871); experiment: GCG activity test (cAMP, chemiluminescence, CHO-K1 cell line stably expressing GCG-R); type: cell-based; settings: relative luminescence units, read-out: GCG activity [EC50(nmol)]
# T2 construct: expressed in transfected cells; host or cells: CHO-K1
# T2 sequence (P47871 26-477, species assumed): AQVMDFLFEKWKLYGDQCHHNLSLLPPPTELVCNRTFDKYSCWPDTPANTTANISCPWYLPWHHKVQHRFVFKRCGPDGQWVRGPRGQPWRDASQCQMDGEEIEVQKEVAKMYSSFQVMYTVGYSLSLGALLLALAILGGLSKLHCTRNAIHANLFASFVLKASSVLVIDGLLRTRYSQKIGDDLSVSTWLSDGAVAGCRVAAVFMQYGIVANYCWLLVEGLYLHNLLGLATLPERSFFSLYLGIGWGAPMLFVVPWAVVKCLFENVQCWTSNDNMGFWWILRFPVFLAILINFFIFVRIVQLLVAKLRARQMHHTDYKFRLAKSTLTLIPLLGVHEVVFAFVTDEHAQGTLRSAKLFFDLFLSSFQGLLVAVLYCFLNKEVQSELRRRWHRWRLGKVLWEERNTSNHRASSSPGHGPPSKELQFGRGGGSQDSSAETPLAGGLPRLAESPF
# Method: as §1, with “agonist, GCG-R” for “agonist, GLP-1R”, “with GCG-R” for “with GLP-1R”, “activity assay” for “activity test”, “evaluating GCG” for “evaluating GLP-1”
# A CHO-K1 cell line stably expressing GCG-R was used. The stable cells were stimulated with agonists at different concentrations, and the relative luminescence units after stimulation at each concentration were measured to calculate the EC50 value of the agonist.
Structure (SMILES),EC50 [1] [nM],EC50 [2] [nM]
CC(C)C[C@H](NC(=O)[C@H](CC(C)C)NC(=O)[C@H](Cc1c[nH]c2ccccc12)NC(=O)[C@H](CCC(=O)O)NC(=O)[C@@H](NC(=O)[C@H](Cc1ccccc1)NC(=O)[C@H](CCC(=O)O)NC(=O)[C@H](CCCCNC(=O)COCCOCCNC(=O)COCCOCCNC(=O)CC[C@H](NC(=O)CCCCCCCCCCCCCCCCCCC(=O)O)C(=O)O)NC(=O)[C@H](C)NC(=O)[C@H](CCCCN)NC(=O)[C@H](CCCCN)NC(=O)[C@H](CCC(=O)O)NC(=O)[C@H](CC(=O)O)NC(=O)[C@H](CC(C)C)NC(=O)[C@H](Cc1ccc(O)cc1)NC(=O)[C@H](CCCCN)NC(=O)[C@H](CO)NC(=O)[C@H](Cc1ccc(O)cc1)NC(=O)[C@H](CC(=O)O)NC(=O)[C@H](CO)NC(=O)[C@@H](NC(=O)C(C)(Cc1ccccc1)NC(=O)[C@@H](NC(=O)CNC(=O)[C@H](CCC(N)=O)NC(=O)C(C)(C)NC(=O)[C@@H](N)Cc1c[nH]cn1)[C@@H](C)O)[C@@H](C)O)C(C)C)C(=O)N[C@@H](CCC(=O)O)C(=O)NCCCCC(=O)N1CCC[C@H]1C(=O)N[C@@H](CO)C(=O)N[C@@H](CO)C(=O)NCC(=O)N[C@@H](C)C(=O)N1CCC[C@H]1C(=O)N1CCC[C@H]1C(=O)N1CCC[C@H]1C(=O)N[C@@H](CO)C(N)=O (stereo partly drawn) [Compound 14],0.088,2.5
CC(C)C[C@H](NC(=O)[C@H](CC(C)C)NC(=O)[C@H](Cc1c[nH]c2ccccc12)NC(=O)[C@H](CCC(=O)O)NC(=O)[C@@H](NC(=O)[C@H](Cc1ccccc1)NC(=O)[C@H](CCC(=O)O)NC(=O)[C@H](CCCCNC(=O)COCCOCCOCCOCCOCCNC(=O)CCCCC[C@H](NC(=O)CCCCCCCCCCCCCCCCCCC(=O)O)C(=O)O)NC(=O)[C@H](C)NC(=O)[C@H](CCCCN)NC(=O)[C@H](CCCCN)NC(=O)[C@H](CCC(=O)O)NC(=O)[C@H](CC(=O)O)NC(=O)[C@H](CC(C)C)NC(=O)[C@H](Cc1ccc(O)cc1)NC(=O)[C@H](CCCCN)NC(=O)[C@H](CO)NC(=O)[C@H](Cc1ccc(O)cc1)NC(=O)[C@H](CC(=O)O)NC(=O)[C@H](CO)NC(=O)[C@@H](NC(=O)C(C)(Cc1ccccc1)NC(=O)[C@@H](NC(=O)CNC(=O)[C@H](CCC(N)=O)NC(=O)C(C)(C)NC(=O)[C@@H](N)Cc1c[nH]cn1)[C@@H](C)O)[C@@H](C)O)C(C)C)C(=O)N[C@@H](CCC(=O)O)C(=O)NCCCCC(=O)N1CCC[C@H]1C(=O)N[C@@H](CO)C(=O)N[C@@H](CO)C(=O)NCC(=O)N[C@@H](C)C(=O)N1CCC[C@H]1C(=O)N1CCC[C@H]1C(=O)N1CCC[C@H]1C(=O)N[C@@H](CO)C(N)=O (stereo partly drawn) [Compound 8],0.105,2.6
CC(C)C[C@H](NC(=O)[C@H](CC(C)C)NC(=O)[C@H](Cc1c[nH]c2ccccc12)NC(=O)[C@H](CCC(=O)O)NC(=O)[C@@H](NC(=O)[C@H](Cc1ccccc1)NC(=O)[C@H](CCC(=O)O)NC(=O)[C@H](CCCCNC(=O)COCCOCCOCCOCCOCCNC(=O)CCCC[C@H](NC(=O)CCCCCCCCCCCCCCCCCCC(=O)O)C(=O)O)NC(=O)[C@H](C)NC(=O)[C@H](CCCCN)NC(=O)[C@H](CCCCN)NC(=O)[C@H](CCC(=O)O)NC(=O)[C@H](CC(=O)O)NC(=O)[C@H](CC(C)C)NC(=O)[C@H](Cc1ccc(O)cc1)NC(=O)[C@H](CCCCN)NC(=O)[C@H](CO)NC(=O)[C@H](Cc1ccc(O)cc1)NC(=O)[C@H](CC(=O)O)NC(=O)[C@H](CO)NC(=O)[C@@H](NC(=O)C(C)(Cc1ccccc1F)NC(=O)[C@@H](NC(=O)CNC(=O)[C@H](CCC(N)=O)NC(=O)C(C)(C)NC(=O)[C@@H](N)Cc1c[nH]cn1)[C@@H](C)O)[C@@H](C)O)C(C)C)C(=O)N[C@@H](CCC(=O)O)C(=O)NCCCCC(=O)N1CCC[C@H]1C(=O)N[C@@H](CO)C(=O)N[C@@H](CO)C(=O)NCC(=O)N[C@@H](C)C(=O)N1CCC[C@H]1C(=O)N1CCC[C@H]1C(=O)N1CCC[C@H]1C(=O)N[C@@H](CO)C(N)=O (stereo partly drawn) [Compound 11],0.0872,1.5
CC(C)C[C@H](NC(=O)[C@H](CC(C)C)NC(=O)[C@H](Cc1c[nH]c2ccccc12)NC(=O)[C@H](CCC(=O)O)NC(=O)[C@@H](NC(=O)[C@H](Cc1ccccc1)NC(=O)[C@H](CCC(=O)O)NC(=O)[C@H](CCCCNC(=O)COCCOCCOCCOCCOCCNC(=O)CCCC[C@H](NC(=O)CCCCCCCCCCCCCCCCCCC(=O)O)C(=O)O)NC(=O)[C@H](C)NC(=O)[C@H](CCCCN)NC(=O)[C@H](CCCCN)NC(=O)[C@H](CCC(=O)O)NC(=O)[C@H](CC(=O)O)NC(=O)[C@H](CC(C)C)NC(=O)[C@H](Cc1ccc(O)cc1)NC(=O)[C@H](CCCCN)NC(=O)[C@H](CO)NC(=O)[C@H](Cc1ccc(O)cc1)NC(=O)[C@H](CC(=O)O)NC(=O)[C@H](CO)NC(=O)[C@@H](NC(=O)C(C)(Cc1ccccc1)NC(=O)[C@@H](NC(=O)CNC(=O)[C@H](CCC(N)=O)NC(=O)C(C)(C)NC(=O)[C@@H](N)Cc1c[nH]cn1)[C@@H](C)O)[C@@H](C)O)C(C)C)C(=O)N[C@@H](CCC(=O)O)C(=O)NCCCCC(=O)N1CCC[C@H]1C(=O)N[C@@H](CO)C(=O)N[C@@H](CO)C(=O)NCC(=O)N[C@@H](C)C(=O)N1CCC[C@H]1C(=O)N1CCC[C@H]1C(=O)N1CCC[C@H]1C(=O)N[C@@H](CO)C(N)=O (stereo partly drawn) [Compound 7],0.0914,2.3
CC(C)C[C@H](NC(=O)[C@H](CC(C)C)NC(=O)[C@H](Cc1c[nH]c2ccccc12)NC(=O)[C@H](CCC(=O)O)NC(=O)[C@@H](NC(=O)[C@H](Cc1ccccc1)NC(=O)[C@H](CCC(=O)O)NC(=O)[C@H](CCCCNC(=O)COCCOCCOCCOCCOCCNC(=O)CCCCC[C@H](NC(=O)CCCCCCCCCCCCCCCCCCC(=O)O)C(=O)O)NC(=O)[C@H](C)NC(=O)[C@H](CCCCN)NC(=O)[C@H](CCCCN)NC(=O)[C@H](CCC(=O)O)NC(=O)[C@H](CC(=O)O)NC(=O)[C@H](CC(C)C)NC(=O)[C@H](Cc1ccc(O)cc1)NC(=O)[C@H](CCCCN)NC(=O)[C@H](CO)NC(=O)[C@H](Cc1ccc(O)cc1)NC(=O)[C@H](CC(=O)O)NC(=O)[C@H](CO)NC(=O)[C@@H](NC(=O)C(C)(Cc1ccccc1F)NC(=O)[C@@H](NC(=O)CNC(=O)[C@H](CCC(N)=O)NC(=O)C(C)(C)NC(=O)[C@@H](N)Cc1c[nH]cn1)[C@@H](C)O)[C@@H](C)O)C(C)C)C(=O)N[C@@H](CCC(=O)O)C(=O)NCCCCC(=O)N1CCC[C@H]1C(=O)N[C@@H](CO)C(=O)N[C@@H](CO)C(=O)NCC(=O)N[C@@H](C)C(=O)N1CCC[C@H]1C(=O)N1CCC[C@H]1C(=O)N1CCC[C@H]1C(=O)N[C@@H](CO)C(N)=O (stereo partly drawn) [Compound 12],0.0954,1.8
CC(C)C[C@H](NC(=O)[C@H](CC(C)C)NC(=O)[C@H](Cc1c[nH]c2ccccc12)NC(=O)[C@H](CCC(=O)O)NC(=O)[C@@H](NC(=O)[C@H](Cc1ccccc1)NC(=O)[C@H](CCC(=O)O)NC(=O)[C@H](CCCCNC(=O)COCCOCCNC(=O)COCCOCCNC(=O)CC[C@H](NC(=O)CCCCCCCCCCCCCCCCCCC(=O)O)C(=O)O)NC(=O)[C@H](C)NC(=O)[C@H](CCCCN)NC(=O)[C@H](CCCCN)NC(=O)[C@H](CCC(=O)O)NC(=O)[C@H](CC(=O)O)NC(=O)[C@H](CC(C)C)NC(=O)[C@H](Cc1ccc(O)cc1)NC(=O)[C@H](CCCCN)NC(=O)[C@H](CO)NC(=O)[C@H](Cc1ccc(O)cc1)NC(=O)[C@H](CC(=O)O)NC(=O)[C@H](CO)NC(=O)[C@@H](NC(=O)C(C)(Cc1ccccc1F)NC(=O)[C@@H](NC(=O)CNC(=O)[C@H](CCC(N)=O)NC(=O)C(C)(C)NC(=O)[C@@H](N)Cc1c[nH]cn1)[C@@H](C)O)[C@@H](C)O)C(C)C)C(=O)N[C@@H](CCC(=O)O)C(=O)NCCCCC(=O)N1CCC[C@H]1C(=O)N[C@@H](CO)C(=O)N[C@@H](CO)C(=O)NCC(=O)N[C@@H](C)C(=O)N1CCC[C@H]1C(=O)N1CCC[C@H]1C(=O)N1CCC[C@H]1C(=O)N[C@@H](CO)C(N)=O (stereo partly drawn) [Compound 15],0.0835,1.8
